Results on seven compounds are retold here after patent US7485623B2 (priority 2002, dated 2009).

A short description of data set [1]: Example 3: plasma pharmacokinetics of 4-hydroxy tamoxifen gel in healthy premenopausal women. The conditions noted are these: for AUC0-24, Mean ± SD / Cav = AUC0-24/24, Mean ± SD / tmax, Mean ± SD / Cmax, Mean ± SD / t1/2 (range): last administration; for Cmax, Mean ± SD: day 25 of second cycle. Here is the method: Each participant applied the gel daily for the duration of two menstrual cycles.
At the end of a menstrual cycle, each patient received a single dose, after which serial blood samples were collected at 0, 0.5, 1, 1.5, 2, 3, 4, 6, 12, 18, 24, 36, 48, and 72 hours.
On the first day of the following menstruation, treatment, which consisted of daily application of the gel over two menstrual cycles, began. Blood samples were collected 24 hours following the morning application of gel on days 7, 20 and 25 of the first and second cycles. On the last day of administration, day 25 of the second menstrual cycle, serial blood samples were collected prior to application and at 0.5, 1, 1.5, 2, 3, 4, 6, 12, 18, 24, 36, 48, and 72 hours after application of the gel.

Data set [2] deals with T1, estrone sulphatase (Homo sapiens, UniProt P08842).
T1 construct: estrone sulphatase activity in mammary cancer cell lines
T1 sequence (P08842 22-583): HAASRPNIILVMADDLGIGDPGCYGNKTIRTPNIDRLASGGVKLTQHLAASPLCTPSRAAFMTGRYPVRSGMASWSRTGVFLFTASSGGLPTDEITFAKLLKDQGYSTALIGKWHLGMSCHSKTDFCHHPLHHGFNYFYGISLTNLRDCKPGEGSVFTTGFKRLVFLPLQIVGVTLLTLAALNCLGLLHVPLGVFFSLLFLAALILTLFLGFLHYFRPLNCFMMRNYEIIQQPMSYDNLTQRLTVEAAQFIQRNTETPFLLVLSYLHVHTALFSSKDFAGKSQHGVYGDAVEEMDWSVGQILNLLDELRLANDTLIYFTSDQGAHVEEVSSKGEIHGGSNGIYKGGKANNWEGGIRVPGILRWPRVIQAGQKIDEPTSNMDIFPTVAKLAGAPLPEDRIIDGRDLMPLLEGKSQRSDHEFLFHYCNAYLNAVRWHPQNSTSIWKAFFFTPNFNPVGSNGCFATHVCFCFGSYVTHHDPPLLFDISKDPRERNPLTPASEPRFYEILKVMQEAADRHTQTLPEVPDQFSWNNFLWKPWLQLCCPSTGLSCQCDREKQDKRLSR
Conditions: mammary cancer cell lines; cited from earlier work.

Data set [3] deals with estrogen receptors. The conditions noted are these: in vitro; cited from earlier work.
The conditions of data set [4]: topical application.
The nature of data set [5]: Example 1: radioactivity and metabolites in breast tissue after percutaneous [3H]-labeled drug.
Description: (§1) The patients received [^3H]-labeled drug applied directly on the affected breasts at specified intervals ranging from 12 hours to 7 days before surgery to excise diseased tissue. Breast tissue from three regions: the tumor, tissue immediately surrounding the tumor, and normal tissue, was excised and immediately frozen in liquid nitrogen. Additionally, plasma and urine samples were obtained at scheduled intervals and frozen until analysis.
Data set [6] in a line: Example 1: radioactivity in blood and urine after percutaneous [3H]-labeled drug. Conditions: for share of radioactivity in blood: 24 hours after percutaneous [3H]-4-hydroxy tamoxifen.
Description: as §1
Data set [7] has as its system breast density. Conditions: cited from earlier work.
The test system of data set [8] is rat liver. The conditions noted are these: cited from earlier work.
The conditions of data set [9]: oral tamoxifen; cited from earlier work.
The conditions of data set [10]: Group 2 (0.5 mg/day gel), seventh day; Group 1 (oral tamoxifen), fifth day; cited from earlier work.
Data set [11] relates to p53(−) normal human mammary epithelial cells. Conditions: cited from earlier work.
Where [12] appears, read: 0.5 mg/day (n = 12), gel 20 mg/100 g.
[13] abbreviates: 1 mg/day (n = 8), gel 20 mg/100 g.
[14] abbreviates: 1 mg/day (n = 12), gel 57 mg/100 g.
Setting [15] is: 2 mg/day (n = 12), gel 57 mg/100 g.
Where [16] appears, read: 12 hr after percutaneous trans-[3H]-4-hydroxy tamoxifen.
[17] abbreviates: 24 hr after percutaneous trans-[3H]-4-hydroxy tamoxifen.
Where [18] appears, read: 36 hr after percutaneous trans-[3H]-4-hydroxy tamoxifen.
Setting [19] is: Day 4 after percutaneous trans-[3H]-4-hydroxy tamoxifen.
[20] abbreviates: Day 7 after percutaneous trans-[3H]-4-hydroxy tamoxifen.

Molecules are shown by their SMILES.

For the compound `CC/C(=C(\c1ccc(O)cc1)c1ccc(OCCN(C)C)cc1)c1ccccc1` [4-hydroxy tamoxifen, 1-[4-(2-N-dimethylaminoethoxy)phenyl]-1-(4-hydroxyphenyl)-2-phenylbut-1-(Z)-ene], the “AUC0-24, Mean ± SD” value in data set [1] (setting [12]) came to 0.2563 ng·h/mL; in data set [1] (setting [13]), 0.3009 ng·h/mL; in data set [1] (setting [14]), 0.619 ± 0.466 ng·h/mL; in data set [1] (setting [15]), 0.998 ± 0.653 ng·h/mL. The “Cav = AUC0-24/24, Mean ± SD” value in [1] (setting [12]) was determined as 0.0107 ± 0.0085 ng/mL; in [1] (setting [13]), 0.0125 ± 0.0079 ng/mL; in data set [1] (setting [14]), 0.0258 ± 0.0194 ng/mL; in [1] (setting [15]), 0.0416 ± 0.0272 ng/mL. Further, the “tmax, Mean ± SD” value in data set [1] (setting [12]) was 40 ± 81 h; in data set [1] (setting [13]) it was 24 ± 18 h; in data set [1] (setting [14]) it was 12.8 ± 14.9 h; in [1] (setting [15]), 11.8 ± 12.3 h. The “Cmax, Mean ± SD” value in data set [1] (setting [12]) was 0.017 ± 0.0085 ng/mL; in [1] (setting [13]) it was 0.021 ± 0.014 ng/mL; in [1] (setting [14]) it was 0.0351 ± 0.0224 ng/mL; in data set [1] (setting [15]), 0.0516 ± 0.0317 ng/mL. Also, the “t1/2 (range)” value is listed as “(58-118) hr” in [1] (setting [14]) and “(49-101) hr” in [1] (setting [15]). Also, the “detectability in plasma after the last gel application” value in data set [1] (in vivo) is “remained detectable 72 hours after the last gel application”. The exposure versus dose result in data set [1] (topical application, 0.5, 1, and 2 mg) is on record as “increases with dose”. Besides, in data set [2], the “effect on estrone sulphatase activity” value is “significant inhibitory effect”. For the same compound, in data set [3], the “binding affinity for estrogen receptors, compared with estradiol” value is given as “a binding affinity similar to estradiol”. The “potency as binding affinity to estrogen receptors, compared with tamoxifen” value in [3] is reported as “more potency than tamoxifen”. Also, the systemic effects entry in [4] is given as “no detectable laboratory or clinical evidence of systemic effects”. The “% Metabolites in Breast Tissue” value in data set [5] (setting [16]) was 97%; in data set [5] (setting [17]) it was 94%; in [5] (setting [18]) it was 78%; in data set [5] (setting [19]), 70%; in [5] (setting [20]) it was 65%. The “metabolism in intracellular sites of breast tissue” value in data set [5] (cytosolic and nuclear fractions) is listed as “remained unmetabolized except for limited isomerization from the trans to the cis form”. Also, the “subcellular distribution in breast tissue” value in data set [5] (percutaneous application) was “concentrated predominantly in the cytosolic and nuclear fractions of breast tissue”. For the same compound, in [5] (percutaneous application of [3H]-labeled drug), the “retention in the breast” value is listed as “approximately 4 days”. For the same compound, in data set [6], the “share of radioactivity in blood” value is reported as 68%. Besides, the “urinary elimination compared to percutaneous tamoxifen” value in data set [6] (percutaneous administration) is “Peak urinary elimination occurred at a later time”.

As to `CC(C)(c1ccc(O)cc1)c1ccc(O)cc1` [Bisphenol], the “% Metabolites in Breast Tissue” value in [5] (setting [16]) is 1%; in data set [5] (setting [17]), 2%; in data set [5] (setting [18]), 3%; in data set [5] (setting [19]), 8%; in data set [5] (setting [20]) it was 8%. In data set [6], the “share of radioactivity in blood” value turned out to be 11%.

For `CC/C(=C(\c1ccccc1)c1ccc(OCCNC)cc1)c1ccccc1` [N-Desmethyl tamoxifen], the entries for the “% Metabolites in Breast Tissue” value in [5] (setting [18]), in data set [5] (setting [19]) and in [5] (setting [20]) were <1%, <1% and 3-4%, respectively.

Turning to `CCC(=C(c1ccc(O)cc1)c1ccc(OCCNC)cc1)c1ccccc1` [N-Desmethyl-4-Hydroxy Tamoxifen], the “% Metabolites in Breast Tissue” value worked out at 2% in data set [5] (setting [16]); 4% in data set [5] (setting [17]); 14% in data set [5] (setting [18]); 20% in data set [5] (setting [19]); 16% in data set [5] (setting [20]). Besides, the “share of radioactivity in blood” value in data set [6] is recorded as 18%.

On to `CC/C(=C(\c1ccc(O)cc1)c1ccc(OCCN(C)C)cc1)c1ccccc1` [Trans 4-hydroxy tamoxifen], for which the “percentage of radioactivity in breast tissue as isomer of 4-hydroxy tamoxifen” value in data set [5] (day 7) came out at 32%.

For `CC/C(=C(\c1ccccc1)c1ccc(OCCN(C)C)cc1)c1ccccc1` [[^3H]-tamoxifen, reference compound], in [6] (percutaneous application), the “time of plateau of radioactivity in blood” value is 2 days.

`CC/C(=C(\c1ccccc1)c1ccc(OCCN(C)C)cc1)c1ccccc1` [tamoxifen]: in [7] (20 mg/day after surgery for breast cancer (Son et al.)), the “women with decreased breast parenchyma” value was 59.8%. In addition, the “change of mammographic pattern” value in data set [7] (contralateral breasts of postmenopausal breast cancer patients, 20 mg/day) was “significant change toward a less dense mammographic pattern”. For the same compound, the “decrease of breast parenchyma in premenopausal women” value in data set [7] (premenopausal women, 20 mg/day (Son et al.)) is 87%. Besides, the rat liver carcinogenicity result in [8] is “potent rat liver carcinogen”. Also, in [9], the “side effects reported by patients” value is “hot flashes, vaginal discharge, depression, amenorrhea, and nausea”. Also, in data set [10], the “side effects reported by one person” value is “hot flashes and mild vaginitis”. Moreover, the “effect on estrone sulphatase activity” value in data set [2] is “little or no effect”. Further, in data set [11], the initiation of apoptosis entry is on record as “initiates apoptosis”.
